Experimental data reported in patent US6608082B1, “Treatment of erectile dysfunction using isoquinoline compound melanocortin receptor ligands” (Lion Bioscience AG, priority 1998, dated 2003).
Values joined by “and” are separate entries in the source; they are usually repeats but may differ in a detail not shown here. Identical values can stand only once. Like-named read-outs stand apart in the source and are kept apart here.

Columns and labels:
[1] = biological target: T1, MCR-1 (Homo sapiens, UniProt Q01726); experiment: Melanocortin receptor binding assay, competition with 125I-HP 467, HEK 293 cells expressing hMCR-1; conditions: for % Disp. of 125I-HP 467 (first of duplicate) / % Disp. of 125I-HP 467 (second of duplicate): 10 μM isoquinoline compound; for % Disp. of 125I-HP 467 (first of duplicate): HEK 293 cells expressing MCR-1, duplicate 1; for % Disp. of 125I-HP 467 (second of duplicate): HEK 293 cells expressing MCR-1, duplicate 2; for effectiveness as MC receptor ligand: binding to MC receptors, Table 1; for IC50: read-out: MC-1 IC50; for % Disp. MC-1 10 μM: displacement of 125I-HP 467 at 10 μM isoquinoline compound
T1 construct: expressed in transfected cells; host or cells: HEK 293
T1 sequence (Q01726 whole entry): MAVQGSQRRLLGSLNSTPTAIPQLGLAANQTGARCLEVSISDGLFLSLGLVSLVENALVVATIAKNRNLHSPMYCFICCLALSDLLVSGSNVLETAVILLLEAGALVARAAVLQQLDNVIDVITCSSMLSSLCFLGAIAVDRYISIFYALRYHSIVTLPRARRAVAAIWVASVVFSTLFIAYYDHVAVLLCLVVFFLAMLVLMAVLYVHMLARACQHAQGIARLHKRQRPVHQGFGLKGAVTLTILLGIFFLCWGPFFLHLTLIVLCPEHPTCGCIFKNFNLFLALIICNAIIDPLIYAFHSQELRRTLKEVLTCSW
Summary of the method: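 Test compounds compete on intact HEK 293 cells carrying hMCR-1 (2×10^4 per tube) or hMCR-4 (4×10^3 per tube), suspended in PBS, 10% calf serum, 1 mM CaCl2.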

[2] = biological target: T1, MCR-1; experiment: cAMP assay for melanocortin receptors, HEK 293 cells expressing MCR-1; format: cell-based; conditions: for EC50: 50% of maximal cAMP production, read-out: MC-1 EC50 (cAMP); for MC-1 Max (pmole) cAMP produced: maximum amount of cAMP
Description: (§1) HEK 293 cells expressing MCR-1, MCR-3, MCR-4 and MCR-5 were used (see Example II). Cells were plated at 20,000 cells per well in a 96-well plate coated with collagen. The next day, cells were pretreated with 75 μl of 0.4 mM 3-isobutyl-1-methylxanthine (IBMX) in low serum medium containing DMEM, 25 mM HEPES, non-essential amino acids, vitamins, 100 units/ml penicillin, 100 μg/ml streptomycin and 0.1% COSMIC CALF SERUM. IBMX is an inhibitor of cAMP phosphodiesterase. The pretreatment was carried out for 10 min at 37° C.
(§2) Following pretreatment, 25 μl of diluted isoquinoline compound was added to the wells, and cells were incubated for 15 min at 37° C. Cells were lysed by adding 25 μl saponin lysis buffer and incubating 2 to 5 min. Plates were covered and stored at −20° C.
(§3) cAMP concentration was determined by ELISA. Briefly, 96 well ELISA plates were coated with goat anti-cAMP antibody in PBS for 12 to 72 hr at 4° C. 50 μl of sample was mixed with 50 μl of cAMP ELISA buffer containing 1% bovine serum albumin, 10% heat-inactivated donor horse serum, 1% normal mouse serum and 0.05% TWEEN-20 in PBS, and the diluted sample was added to the coated ELISA plate. Standards of known concentrations of cAMP were added to separate wells. 25 μl of 16 ng/ml cAMP-conjugated horse radish peroxidase (HRP) (cAMP-HRP) was added to each well, and the plates were […] at room temperature. Plates were washed and the binding of cAMP-HRP was detected with 3,3′,5,5′-tetramethylbenzidine (TMB) and hydrogen peroxide using standard immunoassay procedures.
(§4) Various isoquinoline compounds were tested for their ability to activate MC receptor by measuring cAMP as described in Example III.

[3] = biological target: T2, MCR-3 (Homo sapiens, UniProt P41968); experiment: cAMP assay for melanocortin receptors, HEK 293 cells expressing MCR-3; format: cell-based; conditions: read-out: MC-3 EC50 (cAMP)
T2 construct: expressed in transfected cells; host or cells: HEK 293
T2 sequence (P41968 whole entry): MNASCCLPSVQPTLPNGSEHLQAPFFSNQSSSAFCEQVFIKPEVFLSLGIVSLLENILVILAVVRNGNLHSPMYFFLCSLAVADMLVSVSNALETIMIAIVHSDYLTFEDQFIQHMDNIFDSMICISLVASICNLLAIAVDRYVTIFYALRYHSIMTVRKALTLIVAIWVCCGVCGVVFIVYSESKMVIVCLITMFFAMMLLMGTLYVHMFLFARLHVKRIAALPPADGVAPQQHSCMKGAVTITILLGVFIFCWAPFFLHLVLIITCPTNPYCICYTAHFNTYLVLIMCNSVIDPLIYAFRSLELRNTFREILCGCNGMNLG
Description: as §1, §2, §3, §4

[4] = biological target: T3, MCR-4 (Homo sapiens, UniProt P32245); experiment: cAMP assay for melanocortin receptors, HEK 293 cells expressing MCR-4; format: cell-based; conditions: for EC50: read-out: MC-4 EC50 (cAMP)
T3 construct: expressed in transfected cells; host or cells: HEK 293
T3 sequence (P32245 whole entry): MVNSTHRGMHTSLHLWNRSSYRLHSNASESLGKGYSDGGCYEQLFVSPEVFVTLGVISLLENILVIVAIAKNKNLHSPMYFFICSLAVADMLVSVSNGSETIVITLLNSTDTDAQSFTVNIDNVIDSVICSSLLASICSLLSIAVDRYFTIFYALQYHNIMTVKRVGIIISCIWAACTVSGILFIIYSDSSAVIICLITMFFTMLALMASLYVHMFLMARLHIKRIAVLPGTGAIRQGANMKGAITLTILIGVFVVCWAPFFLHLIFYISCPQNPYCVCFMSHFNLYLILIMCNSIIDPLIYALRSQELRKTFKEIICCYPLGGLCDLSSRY
Description: as §1, §2, §3, §4

[5] = test system: IL-10; experiment: Increasing levels of IL-10 in mice (plasma ELISA); format: in vivo; conditions: for % IL-10 Induction, IP 300 / % IL-10 Induction, Oral 300: 300 μg per mouse; for % IL-10 Induction, IP 300 / % IL-10 Induction, IP 100 / % IL-10 Induction, IP 30 / % IL-10 Induction, Oral 300 / % IL-10 Induction, Oral 600: mouse plasma, 90 or 105 minutes; for % IL-10 Induction, IP 100: 100 μg per mouse; for % IL-10 Induction, IP 30: 30 μg per mouse; for % IL-10 Induction, Oral 600: 600 μg per mouse
Description: Isoquinoline compounds were administered intraperitoneally to mice in doses of 30, 100 or 300 μg/mouse or orally in doses of 300 or 600 μg/mouse. Levels of IL-10 were measured 90 or 105 minutes after administration as indicated. Samples were collected and diluted, when appropriate, as described in Example VI. A 100 μl sample of plasma was assayed by ELISA for IL-10. Briefly, ELISA plates were coated with rat anti-mouse IL-10 monoclonal antibody (Pharmingen; San Diego Calif.). Samples or known concentrations of IL-10 were added to the coated plates and incubated for 2 hr at 37° C. Plates were washed and incubated with biotinylated rat anti-mouse IL-10 (R&D Systems; Minneapolis Minn.) for 1 hr at 37° C. Plates were washed and incubated with streptavidin-HRP 30 min at 37° C., and HRP activity was detected with hydrogen peroxide and TMB using standard immunoassay procedures.

[6] = test system: arachidonic acid induced dermal inflammation; experiment: Arachidonic acid induced dermal inflammation (ear thickness); format: in vivo, Female BALB/c mice; conditions: for inflammation in response to arachadonic acid administration: mouse, in vivo; for reduction in the level of arachidonic acid-induced dermal inflammation: intraperitoneally, HP 228 100 μg/mouse, TRG 2409-2 or TRG 2409-14 100 or 300 μg/mouse, FIG. 5
Description: Female BALB/c mice (17-22 g) were used and administered the test isoquinoline compounds or positive control compounds 30 to 60 min prior to topical application of arachidonic acid. Indomethacin and HP 228 were used as positive controls. Compounds were administered orally (p.o.) or intraperitoneally (i.p.). Initial ear thickness (left and right) was measured using spring loaded micro-calipers. Arachidonic acid was applied to mice anesthetized with a cocktail of ketamine/xylazine (7.0 mg/ml and 0.6 mg/ml, respectively) administered i.p. (300 μl/mouse). Utilizing a micro-pipette, 20 μl of arachidonic acid solution (100 mg/ml ethanol or acetone) was applied to the right ear (10 μl to inner and 10 μl to outer surfaces of […] for a total of 2 mg arachidonic acid per right ear), and 20 μl of vehicle (ethanol or acetone) was applied to the left ear. Mice were returned to their cages to recover. Mice were again anesthetized 50 min after arachidonic acid application and their ears measured.
Dermal inflammation was determined by subtracting the difference of the vehicle treated left ear (L60−L0) from the difference of the arachidonic acid treated right ear (R60−R0). Ear thickness measurements were averaged for each group, and the responses in the vehicle treated control group (Cr; saline or PBS) were subtracted from the response noted in the isoquinoline compound treated group (Tr) to give the relative inflammatory response for each treatment group compared to the control group. The percent inhibition is defined by the equation: % inhibition=(Cr−Tr)/(Cr)×100.

[7] = competition with 125I-HP 467, HEK 293 cells expressing MCR-1
[8] = TRG 2408 and TRG 2409 libraries, inhibition of 125I-HP 467 binding

Structure (SMILES) | % Disp. of 125I-HP 467 (first of duplicate) [1] | % Disp. of 125I-HP 467 (second of duplicate) [1] | EC50 [2] | EC50 [3] | EC50 [4] | MC-1 Max (pmole) cAMP produced [2] | % IL-10 Induction, IP 300 [5] | % IL-10 Induction, IP 100 [5] | effectiveness as MC receptor ligand [1] | % IL-10 Induction, IP 30 [5] | % IL-10 Induction, Oral 300 [5] | % IL-10 Induction, Oral 600 [5] | also measured
CNC(CN)CCCCN1Cc2ccccc2C(CNC2CCCCC2)C1c1ccc2cccc(O)c2n1 (stereo not shown) [TRG 2405-262] | 66.1% | 66.8% | > 50 µM | > 50 µM | > 50 µM |  | 191 ± 53 % |  |  |  |  |  | 
CNC(CN)CCCCN1Cc2ccccc2C(CNC2CCCCC2)C1c1ccc(Br)cc1 (stereo not shown) [TRG 2405-242] | 86% | 83.4% | 13.1 µM | > 50 µM | > 50 µM | 55.89 pmol |  | −9 ± 7% |  |  |  |  | 
CNC(CN)CCCCN1Cc2ccccc2C(CN)C1c1ccc(Cl)cc1Cl (stereo not shown) [TRG 2407-39] |  |  |  |  |  |  | 366 ± 12 % |  |  | 34 ± 13% |  |  | IC50 ([1]; TRG 2406 and TRG 2407 libraries, inhibition of binding of 125I-HP 467): 0.91 µM
CNC(CN)CN1Cc2ccccc2C(CNC2CCCCC2)C1c1ccc(O)cc1 (stereo not shown) [TRG 2405-156] |  |  | 20.6 µM | > 50 µM | > 50 µM | 16.01 pmol | 43 ± 34% | −5 ± 11% |  | 17 ± 23% |  |  | IC50 ([1]; TRG 2405 section, inhibition of binding of 125I-HP 467, HEK 293 cells expressing MCR-1): 17 µM; % Disp. MC-1 10 μM ([1]; first of duplicate): 25.9%; % Disp. MC-1 10 μM ([1]; second of duplicate): 21.3%
CNC(CN)CCCCN1Cc2ccccc2C(CNC2CCCCC2)C1c1ccc(N(C)C)cc1 (stereo not shown) [TRG 2405-235] | 64.2% | 26.3% | 29.9 µM |  | > 50 µM | 17.07 pmol | 113 ± 15 % | 45 ± 18% |  | −11 ± 13% |  |  | 
CNC(CN)CCCCN1Cc2ccccc2C(CNC2CCCCC2)C1c1ccc(C(F)(F)F)cc1 (stereo not shown) [TRG 2405-238] | 76.8% | 72.8% | 19.9 µM | > 50 µM | > 50 µM | 29.82 pmol | 118 ± 25 % | 151 ± 26 % |  | −17 ± 7% |  | 65 ± 15 % | 

Continued, in another order:

% Disp. of 125I-HP 467 (first of duplicate) [1] | % Disp. of 125I-HP 467 (second of duplicate) [1] | EC50 [2] | EC50 [3] | EC50 [4] | MC-1 Max (pmole) cAMP produced [2] | Structure (SMILES) | % IL-10 Induction, IP 300 [5] | % IL-10 Induction, IP 100 [5] | effectiveness as MC receptor ligand [1] | % IL-10 Induction, IP 30 [5] | % IL-10 Induction, Oral 300 [5] | % IL-10 Induction, Oral 600 [5] | also measured
79.4% | 81% | 8.52 µM |  | 46.3 µM | 33.56 pmol | CNC(CN)CCCCN1Cc2ccccc2C(CNC2CCCCC2)C1c1ccc(Cl)cc1Cl (stereo not shown) [TRG 2405-190] | 109 ± 31 % | 13 ± 14% | particularly effective MC receptor ligands | 25 ± 30% |  |  | MC-4 Max (pmole) cAMP produced ([4]; maximum amount of cAMP): 100.48 pmol; increase of IL-10 ([5]; plasma levels in mice): particularly effective at increasing IL-10; inhibition of arachidonic acid induced dermal inflammation ([6]; 100 μg/mouse administered intraperitoneally, FIG. 4): inhibition of arachidonic acid induced dermal inflammation; inflammation in response to arachadonic acid administration [6]: reduced inflammation
 |  | 0.87 µM |  |  | 170 pmol | CCCCNc1ccc(C2C(CNC3CCCCC3)c3ccccc3CN2CCCCC(CN)NC)cc1 (stereo not shown) [TRG 2409-14] | 150 ± 50 % |  | particularly effective MC receptor ligands | −27 ± 8% | 79 ± 29% | 193 ± 50 % | IC50 [1, 7]: 0.1 µM; reduction in the level of arachidonic acid-induced dermal inflammation [6]: decreased dermal inflammation to a lesser extent than TRG 2409-2; inflammation in response to arachadonic acid administration [6]: reduced inflammation
 |  | 2.83 µM |  |  | 125.79 pmol | CCNc1ccc(C2C(CNC3CCCCC3)c3ccccc3CN2CCCCC(CN)NC)cc1 (stereo not shown) [TRG 2408-30] | 24 ± 12% |  | particularly effective MC receptor ligands | −20 ± 14% | 33 ± 18% | 136 ± 41 % | specificity for at least one MC receptor over another MC receptor ([1]; MCR-1 versus MCR-4 binding): about 10 fold; IC50 [1, 8]: 1.17 µM; increase of IL-10 ([5]; administered orally): particularly effective at increasing IL-10; increase of IL-10 ([5]; plasma levels in mice): particularly effective at increasing IL-10
 |  | 1.01 µM |  |  | 200 pmol | CCCCNc1ccc(C2C(CNCc3ccccc3O)c3ccccc3CN2CCCCC(CN)NC)cc1 (stereo not shown) [TRG 2409-2] | 157 ± 57 % |  | particularly effective MC receptor ligands | −30 ± 11% | 39 ± 15% | 82 ± 19 % | IC50 [1, 7]: 0.22 µM; reduction in the level of arachidonic acid-induced dermal inflammation [6]: dose dependent reduction in the level of arachidonic acid-induced dermal inflammation; inflammation in response to arachadonic acid administration [6]: reduced inflammation
 |  | < 0.1 µM |  |  |  | CCNc1ccc(C2C(CNC3CCCCC3)c3ccccc3CN2CCCC(CN)NCCc2ccccc2)cc1 (stereo not shown) [TRG 2408-62] | 270 ± 71 % |  | particularly effective MC receptor ligands | 51 ± 15% | 43 ± 20% | 27 ± 10% | IC50 [1, 8]: 0.12 µM
 |  | < 0.1 µM |  |  |  | CCNc1ccc(C2C(CNCc3ccccc3O)c3ccccc3CN2CCCC(CN)NCCc2ccccc2)cc1 (stereo not shown) [TRG 2408-57] | 386 ± 25 % | 247 ± 75 % and 225 ± 31 % | particularly effective MC receptor ligands | 123 ± 30% | 57 ± 11 % | 104 ± 16 % | IC50 [1, 8]: 0.28 µM
